In patent publication EP4729058A1, “AGENT FOR PROMOTING ENERGY CONSUMPTION” (Otsuka Pharmaceutical Factory, Inc., priority 2023, dated 2024):

Legend:
Format in all cases: in vivo, Mouse, C57BL/6J, male
[1] = Analysis of exhaled gas (energy metabolism measurement system for small animals); conditions: over 24 hours after morning administration on day 82, 720 mg/10mL/kg oral twice a day, ultra high fat diet, n=10
Description: A 32-channel energy metabolism measurement system for small animals (ARCO-2000-RAT, Arco System Inc.) was used to measure exhaled gas. Oxygen consumption (mL/min) and Carbon dioxide production (mL/min) of the animals were measured every 10 minutes at an air flow rate of 0.3 L/min. Measurements were carried out for about 24 hours after the completion of oral administration in the morning of the day before necropsy, and total oxygen consumption (mL/kg/day), energy consumption (kcal/kg/day), and lipid burning (mg/kg/day) over 24 hours were calculated using the following formulae: Calculation formulae: [formula] [formula] [formula] (VO2: oxygen consumption, VCO2: carbon dioxide production)
Animals after arrival were fed ad libitum a solid diet of ultra high fat diet (D12492). After an acclimatization period, the animals were divided into groups according to the body weight. Then, the animals were individually housed and fed ad libitum the ultra high fat diet. The test substance was orally administered to all groups twice daily (once in the morning and once in the afternoon) (CON group: 0.5% CMC was orally administered; compound A administered group: compound A was orally administered). The day of the first administration was regarded as day 0 from the start of the test. Here, 5 animals from each group were regarded as the first-half animals, and the rest were regarded as the second-half animals, and feeding and administration for the second-half animals were started on day 2 from the start of the test of the first-half animals (day 0 from the start of the test of the second-half animals). In order for the animals to be acclimated to the environment inside an exhaled gas measurement chamber, the animals after oral administration in the morning (9:00) at days 7, 21, and 49 days from the start of the test were individually accommodated in the exhaled gas measurement chamber for 5.5 hours (10:00-15:30) with free access to water under fasting conditions. On days 28 and 65, after oral administration in the morning (11:00), all applicable animals were promptly accommodated individually in the exhaled gas measurement chamber, and acclimated for about 24 hours with free access to water and food. Oral administration was carried out in the afternoon of the same day (15:30) and in the morning of the next day (8:30), and the animals after administration were promptly accommodated in the exhaled gas measurement chamber again. After acclimation, the animals were returned to the cages for housing them. […] Oral administration was carried out in the morning (11:00) and afternoon (15:30) of the same day, and after oral administration in the morning (8:30) of the next day, exhaled gas was measured until necropsy. […]

[2] = Rectal temperature before necropsy; conditions: before necropsy (day 83); 720 mg/10mL/kg oral twice a day for 12 weeks, ultra high fat diet; n=10; p < 0.01 vs CON
Source text: Before necropsy, a temperature controller for small animals (NS-TC10 Temperature Controller, Neuroscience, Inc.) equipped with a probe for measuring the rectal temperature was inserted into the rectum to measure the rectal temperature.
(§1) Animals after arrival were fed ad libitum a solid diet of ultra high fat diet (D12492). After an acclimatization period, the animals were divided into groups according to the body weight. Then, the animals were individually housed and fed ad libitum the ultra high fat diet. The test substance was orally administered to all groups twice daily (once in the morning and once in the afternoon) (CON group: 0.5% CMC was orally administered; compound A administered group: compound A was orally administered). The day of the first administration was regarded as day 0 from the start of the test. Here, 5 animals from each group were regarded as the first-half animals, and the rest were regarded as the second-half animals, and feeding and administration for the second-half animals were started on day 2 from the start of the test of the first-half animals (day 0 from the start of the test of the second-half animals). […] Oral administration was carried out in the morning (11:00) and afternoon (15:30) of the same day, and after oral administration in the morning (8:30) of the next day, exhaled gas was measured until necropsy. […]

Body weight measurement = conditions: for Body weight: ultra high fat diet, n=10
Description: Measurements were carried out at the time of arrival and every week from the day of grouping until the time of necropsy. Measurements were also carried out on the day of measuring the body composition and immediately before necropsy.
(§2) Animals after arrival were fed ad libitum a solid diet of ultra high fat diet (D12492). After an acclimatization period, the animals were divided into groups according to the body weight. Then, the animals were individually housed and fed ad libitum the ultra high fat diet. The test substance was orally administered to all groups twice daily (once in the morning and once in the afternoon) (CON group: 0.5% CMC was orally administered; compound A administered group: compound A was orally administered). The day of the first administration was regarded as day 0 from the start of the test. Here, 5 animals from each group were regarded as the first-half animals, and the rest were regarded as the second-half animals, and feeding and administration for the second-half animals were started on day 2 from the start of the test of the first-half animals (day 0 from the start of the test of the second-half animals). In order for the animals to be acclimated to the environment inside an exhaled gas measurement chamber, the animals after oral administration in the morning (9:00) at days 7, 21, and 49 days from the start of the test were individually accommodated in the exhaled gas measurement chamber for 5.5 hours (10:00-15:30) with free access to water under fasting conditions. On days 28 and 65, after oral administration in the morning (11:00), all applicable animals were promptly accommodated individually in the exhaled gas measurement chamber, and acclimated for about 24 hours with free access to water and food. Oral administration was carried out in the afternoon of the same day (15:30) and in the morning of the next day (8:30), and the animals after administration were promptly accommodated in the exhaled gas measurement chamber again. After acclimation, the animals were returned to the cages for housing them. On day 82, all applicable animals were promptly accommodated in the exhaled gas measurement chamber (10:00) before oral administration in the morning. Oral administration was carried out in the morning (11:00) and afternoon (15:30) of the same day, and after oral administration in the morning (8:30) of the next day, exhaled gas was measured until necropsy. The animals were subjected to necropsy in the afternoon on day 83 (13:00). At the time of necropsy, laparotomy was performed under isoflurane anesthesia, and blood was collected from the caudal vena cava. After blood collection, the animals were euthanized by bleeding from the site of blood collection, and organs (fat, skeletal muscle) were collected.

[3] = Body composition (body composition analyzer, Echo MRI-700); conditions: 720 mg/10mL/kg oral twice a day, ultra high fat diet, n=10
Description: The body fat mass and the lean body mass were measured with a body composition analyzer (Echo MRI-700, Hitachi, Ltd.) at 6, 9, and 12 weeks of the test food intake, and divided by the body weight to calculate body fat percentage and lean body mass percentage.
as §2

[4] = White fat tissue weight at necropsy; conditions: white fat weight per body weight at necropsy, 720 mg/10mL/kg oral twice a day for 12 weeks, ultra high fat diet, n=10
Source text: as §2
At the time of necropsy, fat around the left and right epididymides was taken out, and then the epididymides were discarded. […]

[5] = Skeletal muscle weight at necropsy; conditions: 720 mg/10mL/kg oral twice a day for 12 weeks, ultra high fat diet, n=10, p<0.05 vs CON
Source text: as §2, with “collected. […]” for “collected.”

[6] = Total cholesterol in plasma at necropsy; conditions: 720 mg/10mL/kg oral twice a day for 12 weeks, ultra high fat diet, n=10, p < 0.01 vs CON
Source text: as §1

[7] = calculated from VO2 and VCO2, p < 0.01 vs CON
[8] = muscle weight per body weight at necropsy, left and right together

In the case of `O=C(O)CC(C(=O)O)N1C(=O)CC(O)(CC(=O)O)C1=O` (racemic) [Compound A], the “total carbon dioxide production” value [1] is reported as 28.277 mL/min/kg, the total oxygen consumption ([1]; p < 0.01 vs CON) is reported as 35.682 mL/min/kg and the total energy consumption [1, 7] is reported as 243 kcal/kg/day. The total lipid burning [1, 7] was 17768 mg/kg/day, the Rectal temperature [2] was 35.7 °C and the Body weight (Body weight measurement; 1 week, 720 mg/10mL/kg oral twice a day) was 24.9 g. The Body weight (Body weight measurement; 2 weeks, 720 mg/10mL/kg oral twice a day) was 25.1 g, the Body weight (Body weight measurement; 3 weeks, 720 mg/10mL/kg oral twice a day) was 25.3 g and the Body weight (Body weight measurement; 4 weeks, 720 mg/10mL/kg oral twice a day) was 25.4 g. For the same molecule, the Body weight (Body weight measurement; 5 weeks, 720 mg/10mL/kg oral twice a day) was 25.8 g, the Body weight (Body weight measurement; 6 weeks, 720 mg/10mL/kg oral twice a day) was 26.4 g and the Body weight (Body weight measurement; 7 weeks, 720 mg/10mL/kg oral twice a day, p=0.087 vs CON) was 26.8 g. The Body weight (Body weight measurement; 8 weeks, 720 mg/10mL/kg oral twice a day, p=0.082 vs CON) was 27.3 g, the Body weight (Body weight measurement; 9 weeks, 720 mg/10mL/kg oral twice a day, p=0.068 vs CON) was 27.8 g and the Body weight (Body weight measurement; 10 weeks, 720 mg/10mL/kg oral twice a day, p < 0.05 vs CON) was 27.2 g. It also gave a Body weight (Body weight measurement; 11 weeks, 720 mg/10mL/kg oral twice a day, p < 0.05 vs CON) of 28.3 g, a Body weight (Body weight measurement; 12 weeks, 720 mg/10mL/kg oral twice a day, p < 0.05 vs CON) of 28.9 g and a Body weight (Body weight measurement; Before administration (baseline)) of 25.1 g. For the same molecule, the “body weight gain relative to the body weight gain of the CON group being 100%” value (Body weight measurement; after 12 weeks of administration, (3.8 / 7.2) × 100) was 52.8%, the “mean body weight gain” value (Body weight measurement; after 12 weeks of administration, CON group 7.2 g) was 3.8 g and the “Lean body mass percentage” value ([3]; 6 weeks, p=0.057 vs CON) was 79.6%. The Body fat percentage ([3]; 6 weeks, p=0.092 vs CON) was 15.6%, the Body fat percentage ([3]; 9 weeks, p < 0.05 vs CON) was 17.7% and the “Lean body mass percentage” value ([3]; 9 weeks, p < 0.05 vs CON) was 77.3%. The Body fat percentage ([3]; 12 weeks, p < 0.01 vs CON) was 19.0%, the “Lean body mass percentage” value ([3]; 12 weeks, p < 0.01 vs CON) was 74.7% and the Epididymal fat ([4]; p < 0.01 vs CON) was 32.18 g/Kg body weight. For the same molecule, the Perirenal fat ([4]; p < 0.01 vs CON) was 12.12 g/Kg body weight, the Interscapular fat ([4]; p<0.05 vs CON) was 1.88 g/Kg body weight and the Mesenteric fat ([4]; p<0.05 vs CON) was 10.10 g/Kg body weight. For the same molecule, the Anterior tibialis muscle [5, 8] was 3.53 g/Kg body weight, the “Extensor digitorum longus muscle” value [5, 8] was 0.84 g/Kg body weight and the Plantaris muscle [5, 8] was 1.31 g/Kg body weight. The “Muscles (Total weight of 3 types of muscle)” value ([5]; plantaris, anterior tibial and extensor digitorum longus muscle, per body weight at necropsy) was 5.68 g/Kg body weight and the Total cholesterol [6] was 149.4 mg/dL.
